Measurements: the NIST ThermoML archive (doi:10.1021/acs.jced.6b00786)
Numbers after ± are expanded uncertainties.

What was measured:
[1] = 101 kPa, Liquid, Vibrating tube method
[2] = xn = mol fraction of the nth substance listed; details: 101 kPa, Liquid, Vibrating tube method, x2 = 0

O [water]
[1]
Details	mass density [kg/m3]
274.15 K	999.899 ± 0.043
275.15 K	999.94 ± 0.043
276.15 K	999.964 ± 0.043
277.15 K	999.972 ± 0.049
278.15 K	999.964 ± 0.043
279.15 K	999.94 ± 0.043
280.15 K	999.901 ± 0.043
281.15 K	999.848 ± 0.043
282.15 K	999.781 ± 0.043
283.15 K	999.699 ± 0.043
323.15 K	988.03 ± 0.049
333.15 K	983.191 ± 0.052

O [water] + NC=O
[2]
Details	mass density [kg/m3]
274.15 K	999.899 ± 0.043
275.15 K	999.94 ± 0.043
276.15 K	999.964 ± 0.043
277.15 K	999.972 ± 0.049
278.15 K	999.964 ± 0.043
279.15 K	999.94 ± 0.043
280.15 K	999.901 ± 0.043
281.15 K	999.848 ± 0.043
282.15 K	999.781 ± 0.043
283.15 K	999.699 ± 0.043
323.15 K	988.03 ± 0.049
333.15 K	983.191 ± 0.052

NC=O [formamide]
[1]
Details	mass density [kg/m3]
278.15 K	1146.62 ± 0.2
288.15 K	1138.17 ± 0.19
298.15 K	1129.73 ± 0.19
308.15 K	1121.22 ± 0.18
323.15 K	1108.46 ± 0.17
333.15 K	1099.88 ± 0.17
